Reference: patent US9274101B2 (BIOLOG, Inc., priority 2001, dated 2016)

System: E. coli MG1655
Format: cell-based, Escherichia coli

SMILES | suitability as phosphorus source (growth, purple color) | suitability as sulfur source (growth, purple color)
N[C@H](COP(=O)(O)O)C(=O)O [O-phospho-D-serine] | positive | 
N[C@H](Cc1ccc(OP(=O)(O)O)cc1)C(=O)O [O-phospho-D-tyrosine] | positive | 
N[C@@H](COP(=O)(O)O)C(=O)O [O-phospho-L-serine] | positive | 
C[C@@H](OP(=O)(O)O)[C@H](N)C(=O)O [O-phospho-L-threonine] | positive | 
N[C@@H](Cc1ccc(OP(=O)(O)O)cc1)C(=O)O [O-phospho-L-tyrosine] | positive | 
CSC[C@H](N)C(=O)O [S-methyl-L-cysteine] |  | weak positive
Nc1ncnc2c1ncn2C1OC(CO)C2OP(=O)(O)OC21 (stereo not shown) [adenosine 2′:3′-cyclic monophosphate] | not suitable | 
O=C[C@@H](O)[C@H](O)[C@H](O)COP(=O)(O)O [arabinose 5-phosphate] | positive | 
N[C@@H](CCSC[C@H](N)C(=O)O)C(=O)O [cystathionine] |  | positive
Nc1ccn([C@@H]2O[C@H](CO)C3OP(=O)(O)O[C@@H]32)c(=O)n1 (stereo partly shown) [cytidine 2′:3′-cyclic monophosphate] | positive | 
Nc1ccn([C@@H]2O[C@@H]3COP(=O)(O)O[C@H]3[C@H]2O)c(=O)n1 [cytidine 3′:5′-cyclic monophosphate] | not suitable | 
OP(O)(=S)S [dithiophosphate] | positive | positive
O=C(COP(=O)(O)O)[C@@H](O)[C@H](O)[C@H](O)CO [fructose 1-phosphate] | positive | 
N[C@H]1C(OP(=O)(O)O)O[C@H](CO)[C@@H](O)[C@@H]1O (stereo partly shown) [glucosamine 1-phosphate] | positive | 
N[C@H]1C(O)O[C@H](COP(=O)(O)O)[C@@H](O)[C@@H]1O (stereo partly shown) [glucosamine 6-phosphate] | positive | 
